Experimental data as given in ChEMBL document CHEMBL1133625, “Crystal structures of human factor Xa complexed with potent inhibitors” (J Med Chem, 2000).

How the values were obtained:
Trypsin II = molecular target: T1, Trypsin II (Bos taurus, UniProt Q29463); experiment: Binding affinity on bovine pancreatic trypsin enzyme
T1 sequence (Q29463 whole entry): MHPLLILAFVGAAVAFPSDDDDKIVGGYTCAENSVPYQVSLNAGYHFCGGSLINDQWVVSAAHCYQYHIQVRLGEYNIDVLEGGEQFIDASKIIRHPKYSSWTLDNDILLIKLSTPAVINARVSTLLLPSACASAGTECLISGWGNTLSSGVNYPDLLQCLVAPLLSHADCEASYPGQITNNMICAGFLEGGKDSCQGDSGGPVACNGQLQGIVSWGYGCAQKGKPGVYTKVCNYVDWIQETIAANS

Prothrombin = Prothrombin (Homo sapiens, UniProt P00734); experiment: Binding affinity on Thrombin

Ki (Trypsin II)	Ki (Prothrombin)	SMILES
> 2900 nM		Nc1nccc2ccc(CN3CC[C@H](NS(=O)(=O)c4cc5ncccc5s4)C3=O)cc12
> 2900 nM	> 4 µM	O=C1[C@@H](NS(=O)(=O)c2cc3ncccc3s2)CCN1Cc1cc2cc[nH]cc-2n1
